Assay results reported in patent US20150105252A1, “SUBSTITUTED PYRAZOLES AS HERBICIDES” (E I DU PONT DE NEMOURS AND COMPANY, priority 2013, published 2015).

How the values were obtained:
[1] = test system: pigweed; assay: Test A postemergence; assay type: in vivo, Amaranthus retroflexus; details: Postemergence, 1000 g ai/ha; visual rating after approx. 10 days, 0 to 100 scale (0 no effect, 100 complete control)
Outline: (§1)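 Pre- and postemergence greenhouse test; loam+sand; cpd in non-phytotox. solvent/surfactant; post at 1–2 leaf, 2–10 cm; visual score ~10 d, 0 = none, 100 = complete control.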

[2] = test system: wheat; assay: Test A postemergence; assay type: in vivo, Triticum aestivum; details: Postemergence, 1000 g ai/ha; visual rating after approx. 10 days, 0 to 100 scale (0 no effect, 100 complete control)
Outline: as §1

[3] = test system: velvetleaf; assay: Test A postemergence; assay type: in vivo, Abutilon theophrasti; details: Postemergence, 1000 g ai/ha; visual rating after approx. 10 days, 0 to 100 scale (0 no effect, 100 complete control)
Outline: as §1

[4] = test system: crabgrass, large; assay: Test A postemergence; assay type: in vivo, Digitaria sanguinalis; details: Postemergence, 1000 g ai/ha; visual rating after approx. 10 days, 0 to 100 scale (0 no effect, 100 complete control)
Outline: as §1

[5] = test system: wheat; assay: Test A preemergence; assay type: in vivo, Triticum aestivum; details: Preemergence, 1000 g ai/ha; 0 to 100 scale, 0 no effect, 100 complete control
Outline: as §1

[6] = test system: pigweed; assay: Test A preemergence; assay type: in vivo, Amaranthus retroflexus; details: Preemergence, 1000 g ai/ha; 0 to 100 scale, 0 no effect, 100 complete control
From the text: (§2) Seeds of plant species selected from barnyardgrass (Echinochloa crus-galli), kochia (Kochia scoparia), common ragweed (Ambrosia elation), Italian ryegrass (Lolium multiflorum), crabgrass, large (large crabgrass, Digitaria sanguinalis), foxtail, giant (giant foxtail, Setaria faberii), morningglory (Ipomoea spp.), pigweed (redroot pigweed, Amaranthus retroflexus), velvetleaf (Abutilon theophrasti), wheat (Triticum aestivum), and corn (Zea mays) were planted into a blend of loam soil and sand and treated preemergence with a directed soil spray using test chemicals formulated in a non-phytotoxic solvent mixture which included a surfactant.
(§3) At the same time, plants selected from these crop and weed species and also blackgrass (Alopecurus myosuroides), and galium (catchweed bedstraw, Galium aparine) were planted in pots containing the same blend of loam soil and sand and treated with postemergence applications of test chemicals formulated in the same manner. Plants ranged in height from 2 to 10 cm and were in the one- to two-leaf stage for the postemergence treatment. Treated plants and untreated controls were maintained in a greenhouse for approximately 10 days, after which time all treated plants were compared to untreated controls and visually evaluated for injury. Plant response ratings, summarized in Table A, are based on a 0 to 100 scale where 0 is no effect and 100 is complete control. A dash (-) response means no test result.

[7] = test system: barnyardgrass; assay: Test A postemergence; assay type: in vivo, Echinochloa crus-galli; details: Postemergence, 1000 g ai/ha; visual rating after approx. 10 days, 0 to 100 scale (0 no effect, 100 complete control)
Outline: as §1

[8] = test system: crabgrass, large; assay: Test A preemergence; assay type: in vivo, Digitaria sanguinalis; details: Preemergence, 1000 g ai/ha; 0 to 100 scale, 0 no effect, 100 complete control
Outline: as §1

[9] = test system: morningglory; assay: Test A postemergence; assay type: in vivo, Ipomoea spp.; details: Postemergence, 1000 g ai/ha; visual rating after approx. 10 days, 0 to 100 scale (0 no effect, 100 complete control)
From the text: as §2, §3

[10] = test system: velvetleaf; assay: Test A preemergence; assay type: in vivo, Abutilon theophrasti; details: Preemergence, 1000 g ai/ha; 0 to 100 scale, 0 no effect, 100 complete control
From the text: as §2, §3

[11] = test system: morningglory; assay: Test A preemergence; assay type: in vivo, Ipomoea spp.; details: Preemergence, 1000 g ai/ha; 0 to 100 scale, 0 no effect, 100 complete control
From the text: as §2, §3

[12] = test system: foxtail, giant; assay: Test A postemergence; assay type: in vivo, Setaria faberii; details: Postemergence, 1000 g ai/ha; visual rating after approx. 10 days, 0 to 100 scale (0 no effect, 100 complete control)
Outline: as §1

[13] = test system: corn; assay: Test A postemergence; assay type: in vivo, Zea mays; details: Postemergence, 1000 g ai/ha; visual rating after approx. 10 days, 0 to 100 scale (0 no effect, 100 complete control)
From the text: as §2, §3

[14] = test system: foxtail, giant; assay: Test A preemergence; assay type: in vivo, Setaria faberii; details: Preemergence, 1000 g ai/ha; 0 to 100 scale, 0 no effect, 100 complete control
Outline: as §1

[15] = test system: barnyardgrass; assay: Test A preemergence; assay type: in vivo, Echinochloa crus-galli; details: Preemergence, 1000 g ai/ha; 0 to 100 scale, 0 no effect, 100 complete control
Outline: as §1

[16] = test system: corn; assay: Test A preemergence; assay type: in vivo, Zea mays; details: Preemergence, 1000 g ai/ha; 0 to 100 scale, 0 no effect, 100 complete control
From the text: as §2, §3

| SMILES | Pigweed plant response rating [1] | Wheat plant response rating [2] | Velvetleaf plant response rating [3] | Crabgrass, Large plant response rating [4] | Wheat plant response rating [5] | Pigweed plant response rating [6] | Barnyardgrass plant response rating [7] | Crabgrass, Large plant response rating [8] | Morningglory plant response rating [9] | Velvetleaf plant response rating [10] | Morningglory plant response rating [11] | Foxtail, Giant plant response rating [12] | Corn plant response rating [13] | Foxtail, Giant plant response rating [14] | Barnyardgrass plant response rating [15] | Corn plant response rating [16] |
| --- | --- | --- | --- | --- | --- | --- | --- | --- | --- | --- | --- | --- | --- | --- | --- | --- |
| CCc1cc(C(=O)NCC(F)(F)F)nn1Cc1cccc(C(F)(F)F)c1 [Compound 18] | 90 | 40 | 100 | 90 | 40 | 90 | 50 | 100 | 100 | 100 | 70 | 90 | 70 | 100 | 80 | 30 |
| CCNC(=O)c1cc(CC)n(Cc2cccc(OC(F)(F)F)c2)n1 [Compound 19] | 100 | 20 | 100 | 80 | 10 | 100 | 60 | 100 | 90 | 80 | 90 | 70 | 20 | 100 | 90 | 30 |
| CSc1cc(C(=O)NC2CC2)nn1Cc1cccc(C(F)(F)F)c1 [Compound 22] | 60 | 20 | 80 | 50 | 0 | 0 | 30 | 10 | 100 | 0 | 0 | 40 | 10 | 20 | 0 | 0 |
| CCNC(=O)c1cc(SC)n(Cc2cccc(C(F)(F)F)c2)n1 [Compound 23] | 40 | 0 | 30 | 30 | 0 | 0 | 10 | 0 | 100 | 0 | 0 | 30 | 20 | 0 | 0 | 0 |
| C=CCNC(=O)c1cc(CC)n(Cc2cccc(C(F)(F)F)c2)n1 [Compound 44] | 50 | 20 | 40 | 20 | 0 | 10 | 10 | 50 | 70 | 0 | 20 | 50 | 20 | 50 | 10 | 20 |
